Here are results for three molecules from patent US12559863B2, “Macrocyclic modulators of disease associated protein misfolding and aggregation” (RESQ BIOTECH, priority 2017, dated 2026).

The target in data set [1] is T1, Aβ40 (Homo sapiens, UniProt P05067).
T1 construct: The main product of APP cleavage consists of 40 amino acids (Aβ40); purchased Eurogentec, Belgium; host or cells: chemical synthesis
Kind of data set: Circular dichroism of Aβ40 with cyclic peptide. The format is biochemical. To be noted: 50 μM Aβ, 33° C., 30 d. How it is done: Synthetic Aβ40 and Aβ42 peptides were gently dissolved without vortexing in doubly deionized water to a final concentration of 100 μM. These solutions were then diluted by PBS addition (10 mM, pH 7.33) to achieve a final Aβ concentration of 50 μM.
Appropriate amounts of synthetic cyclic peptides were added to either 40 μM SOD1(A4V) or 50 μM Aβ solutions at the desired cyclic peptide:target protein molar ratio. SOD1(A4V) structural changes were monitored for 90 d at 25° C., under quiescent conditions. Aβ structural changes were monitored for 30 d at 33° C. under quiescent conditions. CD spectra in the range 190-260 nm were recorded on a JASCO J-715 spectropolarimeter (Jasco Co., Japan) using quartz cuvettes with 1 mm path length. Each reported spectrum is the average of three scans at a rate of 100 nm·min^−1 and a resolution of 0.5 nm.
(In general: Circular dichroism is widely used to follow secondary structure.)

Data set [2] concerns the target T1, Aβ40. The experiment in a line: Thioflavin T dye-binding assay of Aβ40. The format is biochemical. The note with it: 30-d aged CD solutions. The method, then: For Aβ ThT staining, 100 μL of the 30-d aged 50 μM CD solutions were diluted in PBS (10 mM, pH 7.33) to form a 25 μM Aβ solution with 200 μL final volume. 2.5 μL from a stock solution of ThT (Sigma-Aldrich, USA) in PBS (10 mM, pH 7.33) was added to the prepared Aβ solutions to achieve a final ThT concentration of 5 μM. The mixture was agitated adequately by pipetting and immediately thereafter, fluorescence was monitored with excitation at 440 nm (EM slit=2.5 nm, PMT Voltage 700 V, response 0.4 s) using a HITACHI F-2500 (Japan) spectrofluorometer.

A further data set has as its target T2, Aβ42 (Homo sapiens, UniProt P05067).
T2 construct: one of the secondary products yields a 42-amino-acid-long peptide (Aβ42); purchased Eurogentec, Belgium; host or cells: chemical synthesis
The experiment in a line: Transmission electron microscopy of Aβ42. Type of data set: biochemical. To be noted: 50 μM Aβ42 with 100 μM peptide, 30-d aged. How it is done:
For TEM analysis, the 30-d aged 50 μM CD solutions of Aβ42 (with 100 μM of the selected peptides or without) was mixed well by pipetting. 2 μL of this solution were placed in a carbon-coated film on 200-mesh copper grids (Agar Scientific, UK) for 5 min. After adsorption, grids were washed in deionized water and negatively stained by applying a 2-μl drop of freshly prepared 1% (w/v) uranyl acetate (Sigma-Aldrich, USA) in Milli-Q water for 5 min. Excess fluid was blotted off, and grids were washed in deionized water and dried in air. Images were recorded using a FEI CM20 electron microscope (FEI, USA) with a Gatan GIF200 imaging filter (Gatan, USA), equipped with a Peltier-cooled slow-scan CCD camera.

Data set [3] deals with glioblastoma cell line U87MG. Type of data set: cell-based, human. To be noted: for Aβ-induced toxicity in U87MG: MTT. How it is done: The utilized U87MG cells (human glioblastoma-astrocytoma, epithelial-like cell line) were kind a gift from Dr. Maria Paravatou-Petsotas, Radiobiology Laboratory, Institute of Nuclear & Radiological Sciences & Technology, Energy & Safety, NCSR “Demokritos”. The utilized media/agents for U87MG cell cultures were obtained from Biochrom AG (Germany) and PAA Laboratories (USA). U87MG cells were grown in Dulbecco's modified Eagle medium (DMEM), supplemented with 10% fetal bovine serum (FBS), 2.5 mM L-glutamine, 1% penicillin/streptomycin at 37° C. and 5% CO2. For MTT cytotoxicity studies, cells were plated at a density of 2×10^4 cells per well in 96-well plates and incubated at 37° C. for 24 h to allow cells to attach. The medium was subsequently removed and cells were rendered quiescent by incubation in serum-free medium for 24 h. For cell viability measurements cells were subsequently treated with the indicated concentrations of Aβ in the presence or absence of synthetic peptides, as described in Materials and Methods.
(§1) Solutions of synthetic Aβ40 or Aβ42 (10 μM) in PBS, preincubated at 37° C. (3 d for Aβ40 solutions and 1 d for Aβ42 solutions) in the presence or absence of synthetic cyclic peptides (1:1 and 2:1 ratio of peptides:Aβ), were diluted with fresh medium and transferred into wells at a 1 μM final Aβ concentration. Cell viability was determined using the MTT assay. MTT (3-[4,5-dimethylthiazol-2-yl]-2,5-diphenyl tetrazolium bromide) was purchased from Applichem (Germany). After 24 h of exposure to Aβ solutions, 100 μL of a 0.5 mg/mL stock solution of MTT in Neurobasal-A was added to each well of primary hippocampal neurons followed by a 3 h incubation at 37° C., while 100 μL of a 1 mg/mL stock solution of MTT in DMEM complete medium was added to each well of U87MG cells followed by a 4 h incubation at 37° C. The medium was then removed and the cells were diluted in DMSO. The relative formazan concentration was measured by determination of the absorbance at 540 nm using a plate reader (Tecan, Austria). Results were expressed as the percentage of MTT reduction, assuming that the absorbance of control (untreated) cells was 100%, and represent the mean of three independent experiments with six replicate wells for each condition. Induced cell death was also qualitatively examined by phase-contrast microscopy (Carl Zeiss, Axiovert 25 CFL, Germany) using the above solutions. In each run, the effect of solutions of plain synthetic peptides and plain Aβ40 or Aβ42 was independently checked to serve as internal control.

Data set [4] deals with Aβ-exposed neuronal cells. Kind of data set: Phase-contrast microscopy of Aβ-exposed neuronal cells. The note with it: pre-aggregated Aβ. Type of data set: cell-based, mouse. How it is done:
as §1, with “In each run, the effect of solutions of plain synthetic peptides and plain Aβ40 or Aβ42 was independently checked to serve as internal control.” left out

Where a SMILES comes first, the peptide text is derived from it.

In the case of `C[C@@H]1NC(=O)[C@H](CO)NC(=O)[C@H]([C@@H](C)O)NC(=O)[C@@H]2CCCN2C(=O)[C@H](CO)NC1=O` [AβC5-34, cyclo-SASPT] (cyclo(ASPTS)), the “effect on aggregation process of Aβ40 (CD)” value (shortened to “effect on aggregation process”) on Aβ40 [1] was “did not have the same effect and resulted in the appearance of a low-intensity negative peak”. At Aβ40 [2], the “Aβ40 fibril formation (ThT)” value is “almost unaffected”. Moreover, the “Aβ42 fibrils by TEM” value at Aβ42 was “notably fewer, shorter and ill-developed”. In data set [3], the “growth-promoting effects or cytotoxicity of peptide on its own” value was “did not exhibit general growth-promoting effects or considerable cytotoxicity” and the “Aβ-induced toxicity in U87MG” value was “toxicity-suppressing effects”. In data set [4], the “morphology of Aβ-exposed neuronal cells” value is on record as “marked recovery of the Aβ-induced alterations”.

Regarding `C[C@@H]1NC(=O)[C@H]([C@@H](C)O)NC(=O)[C@H](CCCNC(=N)N)NC(=O)[C@H](CC(=O)O)NC(=O)[C@H](Cc2ccccc2)NC1=O` [AβC5-116, cyclo-TAFDR] (cyclo(AFDRT)), the “effect on aggregation process” value on Aβ40 [1] is “strongly inhibit the aggregation of Aβ40”. Moreover, the “Aβ40 fibril formation (ThT)” value on Aβ40 [2] is recorded as “reduced”. Besides, the “Aβ42 fibrils by TEM” value at Aβ42 is “notably fewer, shorter and ill-developed”. In data set [3], the “growth-promoting effects or cytotoxicity of peptide on its own” value is “did not exhibit general growth-promoting effects or considerable cytotoxicity” and the “Aβ-induced toxicity in U87MG” value was “toxicity-suppressing effects”. In addition, in data set [4], the “morphology of Aβ-exposed neuronal cells” value is recorded as “marked recovery of the Aβ-induced alterations”.

Consider cyclo-TWSVW (cyclic) [SOD1C5-4], for which the “effect on aggregation process” value with Aβ40 [1] was “did not have any effect”. Also, in the data set with Aβ40 [2], the “Aβ40 fibril formation (ThT)” value is “did not have any effect”.
